Several values for one entry are separate records, joined by “and”; a condition that tells them apart may be missing. Identical values can stand only once. Inconclusive results and toxic doses are left out.

For this experiment, the system named is L1210 leukemia ip in BDF1 mice, survival T/C. Kind of experiment: NCI In Vivo Anticancer Drug Screen. Data for tumor model L1210 Leukemia (intraperitoneal) in B6D2F1 (BDF1) mice. The conditions noted are these: endpoint: mean survival time, higher = longer survival. In a few lines: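 Transplanted-tumor mice were given test agent; controls received vehicle only. Survival readings from the two groups were divided (treated over control).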

The mark [1] stands for this setting: dose: 100.0 mg/kg/injection, schedule: Q04DX003 (ip), vehicle: saline.
Setting [2] is: dose: 25.0 mg/kg/injection, schedule: Q04DX003 (ip), vehicle: saline.
Where [3] appears, read: dose: 50.0 mg/kg/injection, schedule: Q04DX003 (ip), vehicle: saline.
Setting [4] is: dose: 100.0 mg/kg/injection, schedule: Q01DX001 (ip), vehicle: saline.
Where [5] appears, read: dose: 200.0 mg/kg/injection, schedule: Q01DX001 (ip), vehicle: saline.
Where [6] appears, read: dose: 100.0 mg/kg/injection, schedule: Q01DX009 (ip), vehicle: Klucel (hydroxypropylcellulose) (HPC).
[7] abbreviates: dose: 200.0 mg/kg/injection, schedule: Q01DX009 (ip), vehicle: Klucel (hydroxypropylcellulose) (HPC).
Where [8] appears, read: dose: 400.0 mg/kg/injection, schedule: Q01DX001 (ip), vehicle: saline.

For the compound `COc1ccc(CC(N)C(=O)O)cc1N(CCCl)CCCl` (centres undefined), the T/C was 116 % of control (dose: 0.07 mg/kg/injection, schedule: Q01DX009 (ip), vehicle: carboxymethylcellulose (CMC)); 117 % of control (dose: 0.08 mg/kg/injection, schedule: Q01DX009 (ip), vehicle: carboxymethylcellulose (CMC)); 110 % of control (dose: 0.4 mg/kg/injection, schedule: Q01DX009 (ip), vehicle: carboxymethylcellulose (CMC)); 111 % of control and 108 % of control (dose: 0.6 mg/kg/injection, schedule: Q01DX001 (ip), vehicle: carboxymethylcellulose (CMC)); 120 % of control and 106 % of control (dose: 1.2 mg/kg/injection, schedule: Q01DX001 (ip), vehicle: carboxymethylcellulose (CMC)); 150 % of control (dose: 1.2 mg/kg/injection, schedule: Q01DX009 (ip), vehicle: carboxymethylcellulose (CMC)). Also, the T/C is, setting by setting: (dose: 1.5 mg/kg/injection, schedule: Q01DX009 (ip), vehicle: carboxymethylcellulose (CMC)) 151 % of control; (dose: 2.0 mg/kg/injection, schedule: Q01DX009 (ip), vehicle: carboxymethylcellulose (CMC)) 166 % of control; (dose: 2.5 mg/kg/injection, schedule: Q01DX001 (ip), vehicle: carboxymethylcellulose (CMC)) 121 % of control and 110 % of control; (dose: 2.5 mg/kg/injection, schedule: Q01DX009 (ip), vehicle: carboxymethylcellulose (CMC)) 227 % of control; (dose: 3.0 mg/kg/injection, schedule: Q01DX009 (ip), vehicle: carboxymethylcellulose (CMC)) 183 % of control; (dose: 4.5 mg/kg/injection, schedule: Q01DX009 (ip), vehicle: carboxymethylcellulose (CMC)) 180 % of control and 213 % of control. The T/C is 123 % of control (dose: 5.0 mg/kg/injection, schedule: Q01DX001 (ip), vehicle: carboxymethylcellulose (CMC)); 92 % of control (dose: 5.0 mg/kg/injection, schedule: Q01DX009 (ip), vehicle: carboxymethylcellulose (CMC)); 151 % of control and 152 % of control (dose: 5.5 mg/kg/injection, schedule: Q01DX001 (ip), vehicle: carboxymethylcellulose (CMC)); 98 % of control (dose: 6.0 mg/kg/injection, schedule: Q01DX009 (ip), vehicle: carboxymethylcellulose (CMC)); 116 % of control (dose: 7.0 mg/kg/injection, schedule: Q01DX009 (ip), vehicle: carboxymethylcellulose (CMC)); 206 % of control (dose: 11.0 mg/kg/injection, schedule: Q01DX001 (ip), vehicle: carboxymethylcellulose (CMC)). Besides, the T/C is 93 % of control (dose: 12.0 mg/kg/injection, schedule: Q01DX009 (ip), vehicle: carboxymethylcellulose (CMC)); 173 % of control (dose: 16.5 mg/kg/injection, schedule: Q01DX001 (ip), vehicle: carboxymethylcellulose (CMC)); 217 % of control (dose: 25.0 mg/kg/injection, schedule: Q01DX001 (ip), vehicle: carboxymethylcellulose (CMC)).
With `BrC1CC2C3CCC(C3)C2C1Br` (centres undefined), the T/C is, setting by setting: (dose: 50.0 mg/kg/injection, schedule: Q01DX001 (ip), vehicle: carboxymethylcellulose (CMC)) 91 % of control; (dose: 100.0 mg/kg/injection, schedule: Q01DX001 (ip), vehicle: carboxymethylcellulose (CMC)) 93 % of control; (dose: 200.0 mg/kg/injection, schedule: Q01DX001 (ip), vehicle: carboxymethylcellulose (CMC)) 93 % of control; (dose: 400.0 mg/kg/injection, schedule: Q01DX001 (ip), vehicle: carboxymethylcellulose (CMC)) 93 % of control.
Consider `Cc1ccc(NCC(O)CN2CCCC2)cc1` (centres undefined), for which the T/C is 94 % of control (dose: 6.0 mg/kg/injection, schedule: Q01DX009 (ip), vehicle: Klucel (hydroxypropylcellulose) (HPC)); 92 % of control (dose: 12.0 mg/kg/injection, schedule: Q01DX009 (ip), vehicle: Klucel (hydroxypropylcellulose) (HPC)); 93 % of control (dose: 12.5 mg/kg/injection, schedule: Q01DX001 (ip), vehicle: Klucel (hydroxypropylcellulose) (HPC)); 104 % of control (dose: 12.5 mg/kg/injection, schedule: Q04DX003 (ip), vehicle: Klucel (hydroxypropylcellulose) (HPC)); 93 % of control (dose: 25.0 mg/kg/injection, schedule: Q01DX001 (ip), vehicle: Klucel (hydroxypropylcellulose) (HPC)); 96 % of control and 100 % of control (dose: 25.0 mg/kg/injection, schedule: Q01DX009 (ip), vehicle: Klucel (hydroxypropylcellulose) (HPC)). For the same compound, the T/C (dose: 25.0 mg/kg/injection, schedule: Q04DX003 (ip), vehicle: Klucel (hydroxypropylcellulose) (HPC)) was 96 % of control and the T/C (dose: 50.0 mg/kg/injection, schedule: Q01DX001 (ip), vehicle: Klucel (hydroxypropylcellulose) (HPC)) is 93 % of control.
Consider `COC1OC2COC(c3ccccc3)OC(OC)(C2)C1NC(C)=O` (centres undefined), for which the T/C runs as follows: (dose: 100.0 mg/kg/injection, schedule: Q01DX001 (ip), vehicle: Klucel (hydroxypropylcellulose) (HPC)) 102 % of control; (dose: 200.0 mg/kg/injection, schedule: Q01DX001 (ip), vehicle: Klucel (hydroxypropylcellulose) (HPC)) 101 % of control; (dose: 400.0 mg/kg/injection, schedule: Q01DX001 (ip), vehicle: Klucel (hydroxypropylcellulose) (HPC)) 98 % of control.
For `CCCC(=O)N1C(C)CCC1C` (centres undefined), the T/C (dose: 100.0 mg/kg/injection, schedule: Q04DX002 (ip), vehicle: saline with Tween-80) was 103 % of control and the T/C (dose: 200.0 mg/kg/injection, schedule: Q04DX002 (ip), vehicle: saline with Tween-80) was 95 % of control.
Regarding `CN(C)/C=N/NC(=O)C1CC1`, the T/C reads like this: under setting [1], 100 % of control; (dose: 200.0 mg/kg/injection, schedule: Q04DX003 (ip), vehicle: saline) 97 % of control; (dose: 400.0 mg/kg/injection, schedule: Q04DX003 (ip), vehicle: saline) 107 % of control.
Consider `CCN(CC)C1=C(Cl)C(=O)C(N(CC)CC)=C(Cl)C1=O`, for which the T/C reads like this: (dose: 25.0 mg/kg/injection, schedule: Q04DX002 (ip), vehicle: gum acacia) 95 % of control; (dose: 50.0 mg/kg/injection, schedule: Q04DX002 (ip), vehicle: gum acacia) 95 % of control.
For `COc1cc(/C=C2\C=Nc3ccccc32)ccc1O`, the T/C (dose: 100.0 mg/kg/injection, schedule: Q04DX002 (ip), vehicle: Klucel (hydroxypropylcellulose) (HPC)) is 97 % of control; the T/C (dose: 200.0 mg/kg/injection, schedule: Q04DX002 (ip), vehicle: Klucel (hydroxypropylcellulose) (HPC)) was 105 % of control; the T/C (dose: 400.0 mg/kg/injection, schedule: Q04DX002 (ip), vehicle: Klucel (hydroxypropylcellulose) (HPC)) was 102 % of control.
Consider `S=C(Nc1ccccc1)c1ccccn1`, for which the T/C by setting is: (dose: 100.0 mg/kg/injection, schedule: Q01DX009 (ip), vehicle: saline with Tween-80) 102 % of control; (dose: 200.0 mg/kg/injection, schedule: Q01DX009 (ip), vehicle: saline with Tween-80) 100 % of control; (dose: 400.0 mg/kg/injection, schedule: Q01DX009 (ip), vehicle: saline with Tween-80) 90 % of control.
Regarding `O=C(C[n+]1ccc2ccccc2c1)c1ccc(-c2ccccc2)cc1`, the T/C is 98 % of control under setting [2]; 105 % of control under setting [3]; 94 % of control under setting [4]; 100 % of control under setting [1]; 101 % of control under setting [5].
In the case of `Cc1cc(C(C)C)cc(C(C)C)c1`, the T/C is 96 % of control under setting [6]; 94 % of control (dose: 100.0 mg/kg/injection, schedule: Q04DX003 (ip), vehicle: Klucel (hydroxypropylcellulose) (HPC)); 95 % of control under setting [7]; 102 % of control (dose: 200.0 mg/kg/injection, schedule: Q04DX003 (ip), vehicle: Klucel (hydroxypropylcellulose) (HPC)); 94 % of control (dose: 400.0 mg/kg/injection, schedule: Q04DX003 (ip), vehicle: Klucel (hydroxypropylcellulose) (HPC)).
With `O=C(O)c1ccc(NC(=O)c2cccc(F)c2)cc1`, the T/C is 100 % of control under setting [6]; 108 % of control under setting [7]; 101 % of control (dose: 400.0 mg/kg/injection, schedule: Q01DX009 (ip), vehicle: Klucel (hydroxypropylcellulose) (HPC)).
`COc1ccccc1OCC(O)COc1ccccc1OC`: the T/C runs as follows: (dose: 12.5 mg/kg/injection, schedule: Q01DX009 (ip), vehicle: saline with Tween-80) 92 % of control; (dose: 12.5 mg/kg/injection, schedule: Q04DX003 (ip), vehicle: saline) 106 % of control; (dose: 25.0 mg/kg/injection, schedule: Q01DX009 (ip), vehicle: saline with Tween-80) 95 % of control; under setting [2], 105 % of control; (dose: 50.0 mg/kg/injection, schedule: Q01DX009 (ip), vehicle: saline with Tween-80) 94 % of control; under setting [3], 105 % of control. In addition, the T/C is 104 % of control under setting [4], 100 % of control under setting [5] and 102 % of control under setting [8].
As for `Cc1ccc(CCS(=O)(=O)N=[N+]=[N-])cc1`, the T/C by setting is: under setting [4], 101 % of control; under setting [5], 97 % of control; under setting [8], 101 % of control.

The values are drawn from PubChem BioAssay AID248 (DTP/NCI, 2004).
